# Measurements taken from US11691984B2, “Compounds and methods for DCAF-mediated protein degradation” (The Scripps Research Institute, priority 2018, dated 2023).
# Assays:
# BRD4 and DCAF16 = target: T1, BRD4 and DCAF16 (Homo sapiens, UniProt O60885+Q9NXF7); test: Co-immunoprecipitation of BRD4-FLAG with HA-DCAF16 in HEK293T cells; type: cell-based; conditions: 10 μM KB02-JQ1, 10 μM MG132, 2 hours
# T1 construct: expressed in transfected cells; host or cells: HEK293T (pRK5 vectors)
# Method: (§1) Cells were collected and lysed in 1% NP-40 lysis buffer (25 mM Tris-HCl pH 7.4, 150 mM NaCl, 10% glycerol, 1% Nonidet P-40) with complete protease inhibitor cocktail (Roche). Cells were vortexed and sonicated for 5 pulses (40%, 4). The supernatant was collected after centrifugation at 16,000 g for 10 min at 4° C. Protein concentration was determined by DC assay (Bio-Rad). Protein lysate was heated at 95° C. for 5 min in 1× Laemmli sample buffer. Proteins were resolved by 12% or 14% Novex Tris-Glycine Mini Gels (Invitrogen) and transferred to polyvinylidene fluoride (PVDF) membrane (0.2 Bio-Rad). The membrane was blocked with 5% BSA in TBST buffer (0.1% Tween 20, 20 mM Tris-HCl 7.6, 150 mM NaCl) at room temperature for 1 h. The antibody was diluted with fresh 5% BSA in TBST buffer (1:10000 dilution for FLAG, HA and β-Actin, 1:1000 dilution for others) and incubated with membrane (1 h room temperature for FLAG, HA and β-Actin, overnight 4° C. for others). Membrane was washed three times with TBST buffer and incubated with secondary antibody (1:5000 dilution in 5% BSA in TBST) at room temperature for 1 h. Membrane was washed three times with TBST buffer. The chemiluminescence signal in membrane was recorded after developing in ECL or ECL plus western blotting detection reagent using CL-XPosure film (Thermo Scientific). Relative band intensities were quantified using ImageJ. […]
# CRL(s) = test: isoTOP-ABPP of ligand-engaged cysteines in HEK293T cells; type: cell-based, human; conditions: 10 μM KB02-SLF, 2 h
# Method: HEK293T cells were treated with DMSO or 10 μM KB02-SLF for 2 h. Cells were collected and subjected to isoTOP-ABPP sample preparation using the same protocol as described in Backus et al., “Proteome-wide covalent ligand discovery in native biological systems”, Nature 534: 570-574 (2016).
# HA-DCAF16 = target: T2, HA-DCAF16 (Homo sapiens, UniProt Q9NXF7); test: Western blot of HA-DCAF16 in DCAF16−/− cells; type: cell-based; conditions: KB02-SLF 1.5 μM, 8 hours
# T2 construct: expressed in transfected cells; host or cells: HEK293T (A9); DCAF16-/- HEK293 clones (A20); pRK5 vector
# Method: (§2) Cells were collected and lysed in 1% NP-40 lysis buffer (25 mM Tris-HCl pH 7.4, 150 mM NaCl, 10% glycerol, 1% Nonidet P-40) with complete protease inhibitor cocktail (Roche). Cells were vortexed and sonicated for 5 pulses (40%, 4). The supernatant was collected after centrifugation at 16,000 g for 10 min at 4° C. Protein concentration was determined by DC assay (Bio-Rad). Protein lysate was heated at 95° C. for 5 min in 1× Laemmli sample buffer. Proteins were resolved by 12% or 14% Novex Tris-Glycine Mini Gels (Invitrogen) and transferred to polyvinylidene fluoride (PVDF) membrane (0.2 Bio-Rad). The membrane was blocked with 5% BSA in TBST buffer (0.1% Tween 20, 20 mM Tris-HCl 7.6, 150 mM NaCl) at room temperature for 1 h. The antibody was diluted with fresh 5% BSA in TBST buffer (1:10000 dilution for FLAG, HA and β-Actin, 1:1000 dilution for others) and incubated with membrane (1 h room temperature for FLAG, HA and β-Actin, overnight 4° C. for others). Membrane was washed three times with TBST buffer and incubated with secondary antibody (1:5000 dilution in 5% BSA in TBST) at room temperature for 1 h. Membrane was washed three times with TBST buffer. The chemiluminescence signal in membrane was recorded after developing in ECL or ECL plus western blotting detection reagent using CL-XPosure film (Thermo Scientific). Relative band intensities were quantified using ImageJ.
# FLAG-FKBP12_NLS = FLAG-FKBP12_NLS (Homo sapiens, UniProt P62942); test: Western blot of FLAG-FKBP12_NLS in DCAF16+/+ and DCAF16−/− HEK293 clones; type: cell-based; parameters: expressed in transfected cells; host or cells: HEK293 DCAF16+/+ and DCAF16-/- clones (lentiviral pCDH-CMV-MCS-EF1-Puro)
# Method: DCAF16 CRISPR knockout HEK293 cell pools were generated by Synthego using nucleofection of Cas9-gRNA ribonucleoprotein (RNP) complex. Editing efficiency 48 h post nucleofection of cell pool was 88%. HEK293 editing cell pools were subjected to single cell sorting in The Flow Cytometry Core Facility at Scripps Research. Individual cell clone was grown in 96-well plate until the cells were confluent. To confirm the editing in DCAF16 gene, genomic DNAs from each clone were extracted using PureLink Genomic DNA Mini Kit (Invitrogen). DCAF16 gene was amplified by PCR and confirmed by DNA sequencing. Indel analysis was performed using ICE analysis from Synthego.
# To confirm DCAF16 knockout at the protein level, lentivirus containing FLAG-FKBP12_NLS was used to infect three wild type DCAF16 clones (clone 6, 17, 18) and three DCAF16 knockout clones (clone 3, 4, 22). Clone 6 stably expressing FLAG-FKBP12_NLS was grown in heavy SILAC DMEM medium for 5 generations. The other clones stably expressing FLAG-FKBP12_NLS were grown in light SILAC DMEM medium for 5 generations. All 6 clones were treated with 5 μM KB02-SLF and 10 μM MG132 for 2 h. Cells were collected and analyzed for FLAG-FKBP12_NLS associating proteins using the same method described below. Proteins from clone 6 (heavy labeled) were combined with the other clones (light labeled) separately and identified by LC-MS/MS.
# as §2
# FLAG-FKBP12 = target: T3, FLAG-FKBP12 (Homo sapiens, UniProt P62942); test: Polyubiquitination of immunoprecipitated cytosolic FLAG-FKBP12 in HEK293T cells; type: cell-based; conditions: KB02-SLF 5 μM, MG132 10 μM, 2 hours
# T3 construct: expressed in transfected cells; host or cells: HEK293T (lentiviral transduction, puromycin selection)
# Method: as §1
# HEK293T cells = test: Cell viability assay (Cell Titer Glo); type: cell-based, human
# Method: HEK293T cells were seeded in 96-well clear bottom white plate (Corning) at 3×10^4 cells per well in 100 μL of DMEM medium and grown for 24 h. The cells were treated with 0.625, 1.25, 2.5, 5, 10, 20 and 40 μM of KB02-SLF or KB02-JQ1 (DMSO stock, final DMEM concentration is 0.1% (v/v)) in 100 μL of DMEM medium for 24 h. 50 μL of Cell Titer Glo reagent (Promega) was added to each well and incubate for 10 min at room temperature. The luminescence was read on CLARIOstar (BMG LAB TECH).
# Sequence of FLAG-FKBP12_NLS (P62942 with tags, fused parts or gaps): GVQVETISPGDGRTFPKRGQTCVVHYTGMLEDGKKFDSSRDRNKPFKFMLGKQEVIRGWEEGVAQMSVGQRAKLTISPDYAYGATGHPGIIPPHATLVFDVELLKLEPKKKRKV
# T3 sequence (P62942 whole entry): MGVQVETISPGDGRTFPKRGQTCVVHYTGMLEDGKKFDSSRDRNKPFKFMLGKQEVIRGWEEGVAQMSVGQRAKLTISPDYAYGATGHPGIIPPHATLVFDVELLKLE
# T2 sequence (Q9NXF7 whole entry): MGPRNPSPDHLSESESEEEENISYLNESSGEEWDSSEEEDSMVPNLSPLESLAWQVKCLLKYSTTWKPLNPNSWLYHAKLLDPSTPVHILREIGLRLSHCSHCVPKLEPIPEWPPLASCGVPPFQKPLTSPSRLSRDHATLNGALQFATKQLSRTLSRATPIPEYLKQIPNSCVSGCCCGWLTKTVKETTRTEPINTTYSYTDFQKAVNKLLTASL
Compound,co-immunoprecipitation of DCAF16 with BRD4 (BRD4 and DCAF16),strongly engaged (>75%) cysteines on CRL(s) (CRL(s)),degradation of HA-DCAF16 (HA-DCAF16),"degradation of FKBP12_NLS in DCAF16−/− clones (FLAG-FKBP12_NLS; HEK293 clones 3, 4, 22, 0.2-5 μM, 8 h)","degradation of FKBP12_NLS in DCAF16+/+ clones (FLAG-FKBP12_NLS; HEK293 clones 6, 17, 18, 0.2-5 μM, 8 h)","FKBP12_NLS degradation in DCAF16−/− cells expressing C58S-, C173S- or C178S-DCAF16 (FLAG-FKBP12_NLS; KB02-SLF 1.5 μM, 8 hours)","FKBP12_NLS degradation in DCAF16−/− cells with recombinant HA-DCAF16 (FLAG-FKBP12_NLS; KB02-SLF 1.5 μM, 8 hours)",polyubiquitination of cytosolic FKBP12 (FLAG-FKBP12),test concentrations with evidence of cytotoxicity (HEK293T cells)
"Cc1sc2c(c1C)C(c1ccc(Cl)cc1)=N[C@@H](CC(=O)NCCOCCOCCNC(=O)COc1ccc3c(c1)CCCN3C(=O)CCl)c1nnc(C)n1-2 [KB02-JQ1, (S)-2-((1-(2-chloroacetyl)-1,2,3,4-tetrahydroquinolin-6-yl)oxy)-N-(2-(2-(2-(2-(4-(4-chlorophenyl)-2,3,9-trimethyl-6H-thieno[3,2-f][1,2,4]triazolo[4,3-a][1,4]diazepin-6-yl)acetamido)ethoxy)ethoxy)ethyl)acetamide]",co-immunoprecipitated with BRD4 in a KB02-JQ1-dependent manner,–,–,–,–,–,–,–,–
"CCC(C)(C)C(=O)C(=O)N1CCCC[C@H]1C(=O)O[C@H](CCc1ccc(OC)c(OC)c1)c1cccc(NC(=O)CCOCCOCCNC(=O)COc2ccc3c(c2)CCCN3C(=O)CCl)c1 [KB02-SLF, (R)-1-(3-(3-(2-(2-(2-((1-(2-chloroacetyl)-1,2,3,4-tetrahydroquinolin-6-yl)oxy)acetamido)ethoxy)ethoxy)propanamido)phenyl)-3-(3,4-dimethoxyphenyl)propyl (S)-1-(3,3-dimethyl-2-oxopentanoyl)piperidine-2-carboxylate]",–,cysteines were not observed on CRL(s) that were strongly engaged (>75%),degradation of HA-DCAF16 was not observed,not in any of the three DCAF16−/− clones,supported the degradation of FKBP12_NLS in all three DCAF16+/+ clones,supported KB02-SLF-induced degradation of FKBP12_NLS,restored KB02-SLF-induced FKBP12_NLS degradation,not cytosolic FKBP12,> 10 µM
